Molecules are shown by their SMILES.

T1 sequence (Q9Y233 1-779 isoform Q9Y233-1): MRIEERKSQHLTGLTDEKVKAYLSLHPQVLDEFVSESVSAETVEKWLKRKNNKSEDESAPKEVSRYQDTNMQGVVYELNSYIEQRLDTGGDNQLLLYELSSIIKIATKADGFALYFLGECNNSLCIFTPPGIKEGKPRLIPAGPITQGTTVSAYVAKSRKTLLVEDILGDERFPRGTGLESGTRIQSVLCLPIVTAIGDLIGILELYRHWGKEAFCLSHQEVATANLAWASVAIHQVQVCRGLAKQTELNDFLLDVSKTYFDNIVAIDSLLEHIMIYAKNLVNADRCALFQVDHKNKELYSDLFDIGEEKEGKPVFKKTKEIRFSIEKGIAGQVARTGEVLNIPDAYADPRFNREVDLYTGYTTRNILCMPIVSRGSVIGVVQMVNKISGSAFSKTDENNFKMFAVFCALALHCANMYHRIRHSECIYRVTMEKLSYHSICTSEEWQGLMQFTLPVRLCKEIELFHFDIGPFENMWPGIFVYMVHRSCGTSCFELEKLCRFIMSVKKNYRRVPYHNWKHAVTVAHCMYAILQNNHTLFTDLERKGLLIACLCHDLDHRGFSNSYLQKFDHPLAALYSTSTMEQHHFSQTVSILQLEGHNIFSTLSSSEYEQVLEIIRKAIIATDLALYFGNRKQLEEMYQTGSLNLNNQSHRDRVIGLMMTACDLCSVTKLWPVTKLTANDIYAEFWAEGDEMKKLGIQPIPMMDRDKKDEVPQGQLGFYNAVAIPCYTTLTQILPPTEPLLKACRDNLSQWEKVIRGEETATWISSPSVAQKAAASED

The assay addresses T1, PDE10 (Homo sapiens, UniProt Q9Y233).
T1 construct: made in house; host or cells: Sf9 insect cells (baculovirus)
Briefly: PDE10 biochemical assay (two-step Thompson and Appleman method or SPA). Particulars: PDE10 inhibition. How it is done:
In short, cAMP is spiked with (^3H)cAMP and incubated with PDE10 and various concentrations of a compound of structure (I). After the appropriate incubation time, the reaction is terminated by heating. The mixture is then subjected to treatment with snake venom phosphatase. The phosphatase hydrolyzes any AMP in the mixture, but leaves unreacted cAMP intact. Thus, by separating cAMP from the mixture and determining its concentration (by radiography), the percent of inhibition can be determined. IC50 values can be calculated by performing the experiment at several concentrations using standard graphical means. A detailed description of the actual technique used for IC50 assays as set forth in following Examples.
The phosphodiesterase (PDE) assay was performed using recombinant human PDE 1A3, 2A3, 3 catalytic region, 4 catalytic region, 5 catalytic region, 7A, 8A, 9A2, 10A1 and 11A1 enzymes expressed in a baculoviral system using Sf9 cells. PDE activity was measured using a modification of the two-step method of Thompson and Appleman described above which was adapted for 96 well plate format. […] The final assay volume was 110 μl with assay buffer (10 mM MgCl2; 40 mM Tris.HCl; pH 7.4). Reactions were initiated with enzyme and incubated with (^3H)-substrate and substance for 20 minutes at 30° C. The reaction was terminated by denaturing the enzyme (heating the reaction to 70° C. for 2 minutes). The reaction was then cooled at 4° C. for 10 minutes before the addition of snake venom (Crotalus atrox, 0.2 mg/ml) for 10 minutes at 30° C., thus allowing non-specific hydrolysis of the tritiated substrate. Separation of the remaining unhydrolysed cyclic nucleotide was achieved by a batch binding of the mixture to activated Dowex (200 μl) anion exchange resin. The anion exchange resin bound the charged nucleotides, leaving only hydrolysed (^3H) substrate in the soluble fraction. The soluble fraction (50 μl) was then added to microscint-20 (200 μl) and counted on a Top Count Plate reader. Radioactivity units were plotted against inhibitor concentration and IC50 values obtained using Graph Pad Prism software.
Alternatively, phosphodiesterase activity was measured by scintillation proximity assay (SPA) with [^3H]-cGMP as substrate. Purified PDE10 was diluted and stored in 25 mM Tris-Cl (pH 8.0)/100 mM NaCl/0.05% Tween 20/50% glycerol/3 mM DTT. Assays contained (final concentrations): 50 mM Tris-Cl (pH 7.5)/8.3 mM MgCl2/1.7 mM EGTA/0.5 mg/ml BSA/5% DMSO and 2 ng PDE10 in a final volume of 0.1 mL. Inhibition was evaluated at 8 concentrations in duplicate. Reactions were initiated by addition of enzyme and were terminated after 20 minutes at 30° C. by the addition of 50 μl of SPA beads containing Zn^++. The mixture was shaken, allowed to settle for 3 hours, and counted in a Wallac plate counter. Results (net cpm) were fitted to a four parameter logistic model using Excel Solver®.
As for `COc1cc(-c2coc(C(=O)C(OC)c3ccc(N4CCCC4)cc3)n2)cc(OC)c1Br` (stereo not shown) [Compound 7-1, 1-(4-(4-Bromo-3,5-Dimethoxyphenyl)Oxazol-2-Yl)-2-Methoxy-2-(4-(Pyrrolidin-1-Yl)Phenyl)Ethanone], the IC50 is not above 1000 nM. Next, `COc1cc(-c2coc(C(=O)C(OC)c3ccc(OC(C)C)cc3)n2)cc(OC)c1Br` (stereo not shown) [Compound 8-1, 1-(4-(4-Bromo-3,5-Dimethoxyphenyl)Oxazol-2-Yl)-2-(4-Isopropoxyphenyl)-2-Methoxyethanone]: not above 1000 nM; `COc1cc(-c2ccc(C(=O)C(OC)c3ccc(-c4cccnc4)cc3)o2)cc(OC)c1Br` (stereo not shown) [Compound 37-1, 1-(5-(4-Bromo-3,5-Dimethoxyphenyl)Furan-2-Yl)-2-Methoxy-2-(4-(Pyridin-3-Yl)Phenyl)Ethanone]: not above 1000 nM; `COc1cc(-c2ccc(C(=O)C(OC)c3ccc(N4CCOCC4)cc3)s2)cc(OC)c1Br` (stereo not shown) [Compound 59-1, 1-(5-(4-Bromo-3,5-Dimethoxyphenyl)Thiophen-2-Yl)-2-Methoxy-2-(4-Morpholinophenyl)Ethanone]: not above 1000 nM. Next, `COc1cc(-c2coc(C(=O)C(OC)c3ccc(-n4cccn4)cc3)n2)cc(OC)c1Br` (stereo not shown) [Compound 5-1, 2-(4-(1H-Pyrazol-1-Yl)Phenyl)-1-(4-(4-Bromo-3,5-Dimethoxyphenyl)Oxazol-2-Yl)-2-Methoxyethanone]: not above 1000 nM; `COc1cc(-c2ccc(C(=O)C(OC)c3ccc(N4CCOCC4)cc3)o2)cc(OC)c1Br` (stereo not shown) [Compound 12-1, 1-(5-(4-Bromo-3,5-Dimethoxyphenyl)Furan-2-Yl)-2-Methoxy-2-(4-Morpholinophenyl)Ethanone]: not above 1000 nM.

For the compound `COc1cc(-c2ccc(C(=O)C(OC)c3ccc(-c4nnc(C)o4)cc3)o2)cc(OC)c1C` (stereo not shown) [Compound 21-1, 1-(5-(3,5-Dimethoxy-4-Methylphenyl)Furan-2-Yl)-2-Methoxy-2-(4-(5-Methyl-1,3,4-Oxadiazol-2-Yl)Phenyl)Ethanone], the IC50 was not above 1000 nM. Next, `COc1cc(-c2coc(C(=O)C(OC)c3ccc(N4CCCCC4)cc3)n2)cc(OC)c1Br` (stereo not shown) [Compound 6-1, 1-(4-(4-Bromo-3,5-Dimethoxyphenyl)Oxazol-2-Yl)-2-Methoxy-2-(4-(Piperidin-1-Yl)Phenyl)Ethanone]: not above 1000 nM; `COc1cc(-c2nc(C(=O)C(OC)c3ccc(N4CCOCC4)cc3)oc2C)cc(OC)c1Br` (stereo not shown) [Compound 55-1, 1-(4-(4-Bromo-3,5-Dimethoxyphenyl)-5-Methyloxazol-2-Yl)-2-Methoxy-2-(4-Morpholinophenyl)Ethanone]: not above 1000 nM. `COc1ccc(-c2ccn(C(=O)C(OC)c3ccc(F)cc3)n2)cc1OC` (stereo not shown) [Compound 51-1, 1-(3-(3,4-Dimethoxyphenyl)-1H-Pyrazol-1-Yl)-2-(4-Fluorophenyl)-2-Methoxyethanone] showed an IC50 not above 1000 nM. `CCOC(C(=O)c1ccc(-c2cc(OC)c(Br)c(OC)c2)o1)c1ccc(-c2nnc(C)s2)cc1` (stereo not shown) [Compound 65-11] had a 50% inhibitory concentration (IC50) not above 1000 nM. Next, `COc1cc(-c2ccc(C(=O)C(OC)c3ccc(N4CCOCC4)cc3)o2)cc(OC)c1Cl` (stereo not shown) [Compound 50-1, 1-(5-(4-Chloro-3,5-Dimethoxyphenyl)Furan-2-Yl)-2-Methoxy-2-(4-Morpholinophenyl)Ethanone]: not above 1000 nM; `COc1cc(-c2coc(C(=O)C(OC)c3cccc4ncccc34)n2)cc(OC)c1Br` (stereo not shown) [Compound 9-1, 1-(4-(4-Bromo-3,5-Dimethoxyphenyl)Oxazol-2-Yl)-2-Methoxy-2-(Quinolin-5-Yl)Ethanone]: not above 1000 nM; `COc1cc(-c2ccc(C(=O)C(OC)c3ccc(CN(C)C)cc3)o2)cc(OC)c1Br` (stereo not shown) [Compound 43-1, 1-(5-(4-Bromo-3,5-Dimethoxyphenyl)Furan-2-Yl)-2-(4-((Dimethylamino)Methyl)Phenyl)-2-Methoxyethanone]: not above 1000 nM. The compound `COc1cc(-c2ccc(C(=O)C(OC)c3ccc(-c4nnc(C)o4)cc3)o2)cc(OC)c1C#N` (stereo not shown) [Compound 65-12] came in with an IC50 not above 1000 nM.

In turn, `COc1cc(-c2coc(C(=O)C(OC)c3cnc4ccccc4c3)n2)cc(OC)c1Br` (stereo not shown) [Compound 10-1, 1-(4-(4-Bromo-3,5-Dimethoxyphenyl)Oxazol-2-Yl)-2-Methoxy-2-(Quinolin-3-Yl)Ethanone] had an IC50 not above 1000 nM. Next, `COc1cc(-c2ccc(C(=O)C(OC)c3ccc(-c4nnc(C)o4)cc3)o2)cc(C#N)c1OC` (stereo not shown) [Compound 17-1, 2,3-Dimethoxy-5-(5-(2-Methoxy-2-(4-(5-Methyl-1,3,4-Oxadiazol-2-Yl)Phenyl)Acetyl)Furan-2-Yl)Benzonitrile]: not above 1000 nM; `COc1cc(-c2coc(C(=O)C(OC)c3ccc(-n4cncn4)cc3)n2)cc(OC)c1Br` (stereo not shown) [Compound 65-2]: not above 1000 nM; `COc1cc(-c2ccc(C(=O)C(OC)c3ccc(CN4CCOCC4)cc3)o2)cc(OC)c1Br` (stereo not shown) [Compound 26-1, 1-(5-(4-Bromo-3,5-Dimethoxyphenyl)Furan-2-Yl)-2-Methoxy-2-(4-(Morpholinomethyl)Phenyl)Ethanone]: not above 1000 nM.

The compound `COc1cc(-c2ccc(C(=O)C(OC)c3ccc(N4CCOCC4)cc3)o2)cc(OC)c1F` (stereo not shown) [Compound 48-1, 1-(5-(4-Fluoro-3,5-Dimethoxyphenyl)Furan-2-Yl)-2-Methoxy-2-(4-Morpholinophenyl)Ethanone] registered an IC50 not above 1000 nM.

Compound `COc1cc(-c2ccc(C(=O)C(OC)c3ccc(-c4nnc(C)o4)cc3)o2)cc(OC)c1F` (stereo not shown) [Compound 62-1, 1-(5-(4-Fluoro-3,5-Dimethoxyphenyl)Furan-2-Yl)-2-Methoxy-2-(4-(5-Methyl-1,3,4-Oxadiazol-2-Yl)Phenyl)Ethanone] displayed an IC50 not above 1000 nM.

`COc1cc(-c2csc(C(=O)C(OC)c3ccc(-n4cccn4)cc3)n2)cc(OC)c1Br` (stereo not shown) [Compound 3-1, 2-(4-(1H-Pyrazol-1-Yl)Phenyl)-1-(4-(4-Bromo-3,5-Dimethoxyphenyl)Thiazol-2-Yl)-2-Methoxyethanone] gave an IC50 not above 1000 nM. In turn, `CCc1nnc(-c2ccc(C(OC)C(=O)c3ccc(-c4cc(OC)c(Br)c(OC)c4)o3)cc2)o1` (stereo not shown) [Compound 18-1, 1-(5-(4-Bromo-3,5-Dimethoxyphenyl)Furan-2-Yl)-2-(4-(5-Ethyl-1,3,4-Oxadiazol-2-Yl)Phenyl)-2-Methoxyethanone] yielded an IC50 not above 1000 nM.

In turn, `COc1cc(-c2ccc(C(=O)C(OC)c3ccc4c(c3)nnn4C)o2)cc(OC)c1Br` (stereo not shown) [Compound 25-1, 1-(5-(4-Bromo-3,5-Dimethoxyphenyl)Furan-2-Yl)-2-Methoxy-2-(1-Methyl-1H-Benzo[D][1,2,3]Triazol-5-Yl)Ethanone] came in with an IC50 not above 1000 nM. Next, `CCOC(C(=O)c1ccc(-c2cc(OC)c(F)c(OC)c2)o1)c1ccc(-c2nnc(C)o2)cc1` (stereo not shown) [Compound 65-13]: not above 1000 nM. The result for `COc1ccc(C(OC)C(=O)c2ccc(-c3cc(OC)c(Br)c(OC)c3)o2)cn1` (stereo not shown) [Compound 42-1, 1-(5-(4-Bromo-3,5-Dimethoxyphenyl)Furan-2-Yl)-2-Methoxy-2-(6-Methoxypyridin-3-Yl)Ethanone] reads not above 1000 nM; that for `CCOC(C(=O)c1ccc(-c2cc(OC)c(Cl)c(OC)c2)o1)c1ccc(N2CCOCC2)cc1` (stereo not shown) [Compound 64-1, 1-(5-(4-Chloro-3,5-Dimethoxyphenyl)Furan-2-Yl)-2-Ethoxy-2-(4-Morpholinophenyl)Ethanone], not above 1000 nM; that for `COc1cc(-c2ccc(C(=O)C(OC)c3ccc(-c4nnc(C)o4)cc3)o2)cc(OC)c1O` (stereo not shown) [Compound 65-15], not above 1000 nM. Next, `CCOC(C(=O)c1ccc(-c2cc(OC)c(OC)c(OC)c2)o1)c1ccc(-c2nnc(C)o2)cc1` (stereo not shown) [Compound 46-1, 2-Ethoxy-2-(4-(5-Methyl-1,3,4-Oxadiazol-2-Yl)Phenyl)-1-(5-(3,4,5-Trimethoxyphenyl)Furan-2-Yl)Ethanone]: not above 1000 nM; `COc1cc(-c2ccc(C(=O)C(OC)c3ccc(N4CCCCC4)nc3)o2)cc(OC)c1Br` (stereo not shown) [Compound 23-1, 1-(5-(4-Bromo-3,5-Dimethoxyphenyl)Furan-2-Yl)-2-Methoxy-2-(6-(Piperidin-1-Yl)Pyridin-3-Yl)Ethanone]: not above 1000 nM; `COc1cc(-c2ccc(C(=O)C(OC)c3ccc(-n4cncn4)cc3)o2)cc(OC)c1Br` (stereo not shown) [Compound 32-1, 2-(4-(1H-1,2,4-Triazol-1-Yl)Phenyl)-1-(5-(4-Bromo-3,5-Dimethoxyphenyl)Furan-2-Yl)-2-Methoxyethanone]: not above 1000 nM.

Broadly, the IC50 is the midpoint of a concentration-inhibition curve. A high value points to a need for much substance.
